Measurements from patent US6358981B1, “Sulphonamide derivatives” (Eli Lilly and Company, priority 1998, dated 2002).

What was measured:
human GluR4B receptor = molecular target: T1, human GluR4B receptor (Homo sapiens, UniProt P48058); experiment: potentiation of agonist-induced excitability of human GluR4B receptor expressed in HEK 293 cells; type: cell-based
T1 construct: expressed in transfected cells
From the text: The ability of compounds of formula I to potentiate glutamate receptor-mediated response may be determined using fluorescent calcium indicator dyes (Molecular Probes, Eugene, Oreg., Fluo-3) and by measuring glutamate-evoked efflux of calcium into GluR4 transfected HEK293 cells, as described in more detail below.
In one test, 96 well plates containing confluent monolayers of HEK cells stably expressing human GluR4B (obtained as described in European Patent Application Publication Number EP-A1-583917) are prepared. The tissue culture medium in the wells is then discarded, and the wells are each washed once with 200 μl of buffer (glucose, 10 mM, sodium chloride, 138 mM, magnesium chloride, 1 mM, potassium chloride, 5 mM, calcium chloride, 5 mM, N-[2-hydroxyethyl]-piperazine-N-[2-ethanesulfonic acid], 10 mM, to pH 7.1 to 7.3). […]
Each test is then performed as follows. […] A second fluorescent reading is taken after 5 minutes incubation. 15 μl of 400 μM glutamate solution is then added to each well (final glutamate concentration 100 μM), and a third reading is taken. The activities of test compounds and cyclothiazide solutions are determined by subtracting the second from the third reading (fluorescence due to addition of glutamate in the presence or absence of test compound or cyclothiazide) and are expressed relative to enhance fluorescence produced by 100 μM cyclothiazide.

T1 sequence (P48058 21-902): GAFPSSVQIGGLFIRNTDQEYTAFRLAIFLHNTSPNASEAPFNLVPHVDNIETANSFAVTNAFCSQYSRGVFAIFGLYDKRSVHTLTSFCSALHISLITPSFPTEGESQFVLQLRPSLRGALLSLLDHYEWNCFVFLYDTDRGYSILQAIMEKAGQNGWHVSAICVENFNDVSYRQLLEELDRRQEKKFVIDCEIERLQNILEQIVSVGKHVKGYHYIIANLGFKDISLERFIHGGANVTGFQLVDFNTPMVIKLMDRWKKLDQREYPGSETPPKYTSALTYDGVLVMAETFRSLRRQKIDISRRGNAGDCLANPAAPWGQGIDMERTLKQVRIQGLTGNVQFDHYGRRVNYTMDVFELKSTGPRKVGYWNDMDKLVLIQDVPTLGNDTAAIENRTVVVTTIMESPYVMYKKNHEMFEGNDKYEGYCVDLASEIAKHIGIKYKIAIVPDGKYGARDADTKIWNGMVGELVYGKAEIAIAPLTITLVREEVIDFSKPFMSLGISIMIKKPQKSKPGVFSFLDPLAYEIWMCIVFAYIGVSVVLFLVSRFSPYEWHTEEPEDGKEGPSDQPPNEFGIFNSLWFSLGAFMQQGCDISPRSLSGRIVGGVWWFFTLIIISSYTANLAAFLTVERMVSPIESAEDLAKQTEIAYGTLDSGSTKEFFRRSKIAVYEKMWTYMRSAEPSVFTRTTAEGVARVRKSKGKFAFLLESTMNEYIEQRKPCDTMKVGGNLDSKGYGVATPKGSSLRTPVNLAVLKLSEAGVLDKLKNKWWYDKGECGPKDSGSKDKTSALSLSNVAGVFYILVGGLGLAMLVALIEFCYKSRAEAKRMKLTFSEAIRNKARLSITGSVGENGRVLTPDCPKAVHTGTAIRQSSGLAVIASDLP

| melting point | Structure (SMILES) | potentiation of agonist-induced excitability (human GluR4B receptor) |
| --- | --- | --- |
| 89 to 91 °C | CC(C)S(=O)(=O)NCC(F)c1ccc(-c2ccccc2)cc1 (centres unmarked) | – |
| – | NS(=O)(=O)c1cc2c(cc1Cl)NC(C1CC3C=CC1C3)NS2(=O)=O (centres unmarked) [cyclothiazide] | potentiate agonist-induced excitability |
